In PubChem BioAssay (NCI):
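Step 1: Grow cells in 96-well plates. Step 2: Expose to compound for 48 hours at 5 concentrations. Step 3: Interpolate endpoints linearly; if unreached, use highest concentration. The concentration for full growth arrest is given as TGI.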

Columns and labels:
Experiment in all cases: NCI-60 cell line screen, 48 h
786-0 renal = tested on: 786-0 renal
A498 renal = tested on: A498 renal
A549 NSCLC = tested on: A549 NSCLC
ACHN renal = tested on: ACHN renal
BT-549 breast = tested on: BT-549 breast
CAKI-1 renal = tested on: CAKI-1 renal
CCRF-CEM leukemia = tested on: CCRF-CEM leukemia
COLO 205 colon = tested on: COLO 205 colon
DU-145 prostate = tested on: DU-145 prostate
EKVX NSCLC = tested on: EKVX NSCLC
HCT-116 colon = tested on: HCT-116 colon
HCT-15 colon = tested on: HCT-15 colon
HOP-62 NSCLC = tested on: HOP-62 NSCLC
HOP-92 NSCLC = tested on: HOP-92 NSCLC
HS 578T breast = tested on: HS 578T breast
HT29 colon = tested on: HT29 colon
IGROV1 ovarian = tested on: IGROV1 ovarian
K-562 leukemia = tested on: K-562 leukemia
KM12 colon = tested on: KM12 colon
LOX IMVI melanoma = tested on: LOX IMVI melanoma
M14 melanoma = tested on: M14 melanoma
MALME-3M melanoma = tested on: MALME-3M melanoma
MDA-MB-231 breast = tested on: MDA-MB-231 breast
MDA-MB-435 = tested on: MDA-MB-435
MDA-N = tested on: MDA-N
MOLT-4 leukemia = tested on: MOLT-4 leukemia
NCI-H226 lung = tested on: NCI-H226 lung
NCI-H23 lung = tested on: NCI-H23 lung
NCI-H460 lung = tested on: NCI-H460 lung
NCI-H522 lung = tested on: NCI-H522 lung
NCI/ADR-RES ovarian = tested on: NCI/ADR-RES ovarian
OVCAR-3 ovarian = tested on: OVCAR-3 ovarian
OVCAR-4 ovarian = tested on: OVCAR-4 ovarian
OVCAR-5 ovarian = tested on: OVCAR-5 ovarian
OVCAR-8 ovarian = tested on: OVCAR-8 ovarian
PC-3 prostate = tested on: PC-3 prostate
RPMI-8226 leukemia = tested on: RPMI-8226 leukemia
RXF 393 renal = tested on: RXF 393 renal
SF-268 CNS = tested on: SF-268 CNS
SF-295 CNS = tested on: SF-295 CNS
SF-539 CNS = tested on: SF-539 CNS
SK-MEL-2 melanoma = tested on: SK-MEL-2 melanoma
SK-MEL-28 melanoma = tested on: SK-MEL-28 melanoma
SK-MEL-5 melanoma = tested on: SK-MEL-5 melanoma
SK-OV-3 ovarian = tested on: SK-OV-3 ovarian
SN12C renal = tested on: SN12C renal
SNB-19 CNS = tested on: SNB-19 CNS
SNB-75 CNS = tested on: SNB-75 CNS
SR leukemia = tested on: SR leukemia
SW-620 colon = tested on: SW-620 colon
T-47D breast = tested on: T-47D breast
TK-10 renal = tested on: TK-10 renal
U251 CNS = tested on: U251 CNS
UACC-257 melanoma = tested on: UACC-257 melanoma
UO-31 renal = tested on: UO-31 renal
HCC-2998 colon = tested on: HCC-2998 colon
MCF7 breast = tested on: MCF7 breast
UACC-62 melanoma = tested on: UACC-62 melanoma
HL-60(TB) leukemia = tested on: HL-60(TB) leukemia

Structure (SMILES): Cn1c2ccc(C3=NCCN3)cc2c2cc(C3=NCCN3)ccc21
- TGI (786-0 renal): > 100 µM
- TGI (A498 renal): > 100 µM
- TGI (A549 NSCLC): > 100 µM
- TGI (ACHN renal): > 100 µM
- TGI (BT-549 breast): > 100 µM
- TGI (CAKI-1 renal): > 100 µM
- TGI (CCRF-CEM leukemia): 0.0344 µM
- TGI (COLO 205 colon): > 100 µM
- TGI (DU-145 prostate): > 100 µM
- TGI (EKVX NSCLC): > 100 µM
- TGI (HCT-116 colon): > 100 µM
- TGI (HCT-15 colon): > 100 µM
- TGI (HOP-62 NSCLC): > 100 µM
- TGI (HOP-92 NSCLC): 63.7 µM
- TGI (HS 578T breast): > 100 µM
- TGI (HT29 colon): > 100 µM
- TGI (IGROV1 ovarian): > 100 µM
- TGI (K-562 leukemia): > 100 µM
- TGI (KM12 colon): > 100 µM
- TGI (LOX IMVI melanoma): > 100 µM
- TGI (M14 melanoma): > 100 µM
- TGI (MALME-3M melanoma): 61 µM
- TGI (MDA-MB-231 breast): > 100 µM
- TGI (MDA-MB-435): > 100 µM
- TGI (MDA-N): > 100 µM
- TGI (MOLT-4 leukemia): > 100 µM
- TGI (NCI-H226 lung): > 100 µM
- TGI (NCI-H23 lung): > 100 µM
- TGI (NCI-H460 lung): 25.9 µM
- TGI (NCI-H522 lung): > 100 µM
- TGI (NCI/ADR-RES ovarian): > 100 µM
- TGI (OVCAR-3 ovarian): > 100 µM
- TGI (OVCAR-4 ovarian): > 100 µM
- TGI (OVCAR-5 ovarian): > 100 µM
- TGI (OVCAR-8 ovarian): > 100 µM
- TGI (PC-3 prostate): > 100 µM
- TGI (RPMI-8226 leukemia): > 100 µM
- TGI (RXF 393 renal): > 100 µM
- TGI (SF-268 CNS): > 100 µM
- TGI (SF-295 CNS): > 100 µM
- TGI (SF-539 CNS): > 100 µM
- TGI (SK-MEL-2 melanoma): > 100 µM
- TGI (SK-MEL-28 melanoma): > 100 µM
- TGI (SK-MEL-5 melanoma): > 100 µM
- TGI (SK-OV-3 ovarian): > 100 µM
- TGI (SN12C renal): > 100 µM
- TGI (SNB-19 CNS): > 100 µM
- TGI (SNB-75 CNS): > 100 µM
- TGI (SR leukemia): > 100 µM
- TGI (SW-620 colon): > 100 µM
- TGI (T-47D breast): > 100 µM
- TGI (TK-10 renal): > 100 µM
- TGI (U251 CNS): > 100 µM
- TGI (UACC-257 melanoma): > 100 µM
- TGI (UO-31 renal): > 100 µM

Structure (SMILES): O=[N+]([O-])c1ccc2nc(/C=C(\O)c3ccc(Cl)cc3)c(/C=C(\O)c3ccc(Cl)cc3)nc2c1
- TGI (786-0 renal): > 100 µM
- TGI (A498 renal): > 100 µM
- TGI (A549 NSCLC): > 100 µM
- TGI (ACHN renal): > 100 µM
- TGI (BT-549 breast): > 100 µM
- TGI (CAKI-1 renal): > 100 µM
- TGI (CCRF-CEM leukemia): > 100 µM
- TGI (COLO 205 colon): > 100 µM
- TGI (DU-145 prostate): > 100 µM
- TGI (EKVX NSCLC): > 100 µM
- TGI (HCC-2998 colon): > 100 µM
- TGI (HCT-116 colon): > 100 µM
- TGI (HCT-15 colon): > 100 µM
- TGI (HOP-62 NSCLC): > 100 µM
- TGI (HT29 colon): > 100 µM
- TGI (IGROV1 ovarian): > 100 µM
- TGI (K-562 leukemia): > 100 µM
- TGI (KM12 colon): > 100 µM
- TGI (M14 melanoma): > 100 µM
- TGI (MALME-3M melanoma): > 100 µM
- TGI (MCF7 breast): > 100 µM
- TGI (MDA-MB-231 breast): > 100 µM
- TGI (MDA-MB-435): > 100 µM
- TGI (MDA-N): > 100 µM
- TGI (MOLT-4 leukemia): > 100 µM
- TGI (NCI-H226 lung): > 100 µM
- TGI (NCI-H23 lung): > 100 µM
- TGI (NCI-H460 lung): > 100 µM
- TGI (NCI-H522 lung): 60.7 µM
- TGI (NCI/ADR-RES ovarian): > 100 µM
- TGI (OVCAR-3 ovarian): > 100 µM
- TGI (OVCAR-4 ovarian): > 100 µM
- TGI (OVCAR-5 ovarian): > 100 µM
- TGI (OVCAR-8 ovarian): > 100 µM
- TGI (PC-3 prostate): > 100 µM
- TGI (RXF 393 renal): > 100 µM
- TGI (SF-268 CNS): > 100 µM
- TGI (SF-295 CNS): > 100 µM
- TGI (SF-539 CNS): > 100 µM
- TGI (SK-MEL-2 melanoma): > 100 µM
- TGI (SK-MEL-5 melanoma): > 100 µM
- TGI (SN12C renal): > 100 µM
- TGI (SNB-19 CNS): > 100 µM
- TGI (SNB-75 CNS): > 100 µM
- TGI (SR leukemia): > 100 µM
- TGI (T-47D breast): > 100 µM
- TGI (TK-10 renal): > 100 µM
- TGI (U251 CNS): > 100 µM
- TGI (UACC-257 melanoma): > 100 µM
- TGI (UACC-62 melanoma): > 100 µM
- TGI (UO-31 renal): > 100 µM

Structure (SMILES): COC(=O)/C=C1\C(=O)C=C2[C@@H]3C[C@H]4C[C@H](CC[C@@]4(C)N21)C3(C)NC(C)=O (some centres undefined)
- TGI (786-0 renal): 14.3 µM
- TGI (A498 renal): 38.9 µM
- TGI (A549 NSCLC): > 57.4 µM
- TGI (ACHN renal): 46 µM
- TGI (BT-549 breast): 24.8 µM
- TGI (CAKI-1 renal): 26.3 µM
- TGI (CCRF-CEM leukemia): 34.7 µM
- TGI (COLO 205 colon): > 36.8 µM
- TGI (DU-145 prostate): 32.8 µM
- TGI (EKVX NSCLC): 30.6 µM
- TGI (HCC-2998 colon): > 64.9 µM
- TGI (HCT-116 colon): 24 µM
- TGI (HCT-15 colon): > 52.7 µM
- TGI (HL-60(TB) leukemia): > 100 µM
- TGI (HOP-62 NSCLC): 60.7 µM
- TGI (HOP-92 NSCLC): 47.5 µM
- TGI (HS 578T breast): 39 µM
- TGI (HT29 colon): 28.2 µM
- TGI (IGROV1 ovarian): 40.7 µM
- TGI (K-562 leukemia): > 100 µM
- TGI (KM12 colon): 33.2 µM
- TGI (LOX IMVI melanoma): > 100 µM
- TGI (M14 melanoma): 26.4 µM
- TGI (MCF7 breast): 68.7 µM
- TGI (MDA-MB-231 breast): 56.2 µM
- TGI (MDA-MB-435): 28.5 µM
- TGI (MDA-N): 33.4 µM
- TGI (MOLT-4 leukemia): 34.3 µM
- TGI (NCI-H226 lung): 55.1 µM
- TGI (NCI-H23 lung): > 60.6 µM
- TGI (NCI-H460 lung): > 100 µM
- TGI (NCI-H522 lung): 3.6 µM
- TGI (NCI/ADR-RES ovarian): > 77 µM
- TGI (OVCAR-3 ovarian): 29 µM
- TGI (OVCAR-4 ovarian): 44 µM
- TGI (OVCAR-5 ovarian): 35.7 µM
- TGI (OVCAR-8 ovarian): 51.2 µM
- TGI (PC-3 prostate): 31.4 µM
- TGI (RPMI-8226 leukemia): > 100 µM
- TGI (RXF 393 renal): > 39.9 µM
- TGI (SF-268 CNS): 22.9 µM
- TGI (SF-295 CNS): 44.1 µM
- TGI (SF-539 CNS): 9.54 µM
- TGI (SK-MEL-2 melanoma): 38.9 µM
- TGI (SK-MEL-28 melanoma): 11.2 µM
- TGI (SK-MEL-5 melanoma): > 60 µM
- TGI (SK-OV-3 ovarian): 55.7 µM
- TGI (SN12C renal): 26.6 µM
- TGI (SNB-19 CNS): > 56.7 µM
- TGI (SNB-75 CNS): 27.4 µM
- TGI (SR leukemia): 99.7 µM
- TGI (SW-620 colon): 24.7 µM
- TGI (T-47D breast): > 27.8 µM
- TGI (TK-10 renal): 33.9 µM
- TGI (U251 CNS): > 56.9 µM
- TGI (UACC-257 melanoma): 52.5 µM
- TGI (UACC-62 melanoma): 35 µM
- TGI (UO-31 renal): > 52.4 µM
